Experimental data published in the NIST ThermoML archive (doi:10.1016/j.jct.2014.04.016).
“And” between values parts separate entries of the source, which are not always exact repeats. Identical values can stand only once. ± gives the expanded uncertainty stated by the source.

Test: xn = mol fraction of the nth substance listed
Settings: 100 kPa; for electrical conductivity: Alternating current cell with electrodes; for mass density: Vibrating tube method; for viscosity: Concentric cylinders viscometry

For `CCCCCCCCOS(=O)(=O)[O-].CCn1cc[n+](C)c1` [1-ethyl-3-methylimidazolium octyl sulfate] + O, the electrical conductivity (251.8 K, Glass, x1 = 0.5001) was 0.013 ± 0.003 S/m, the electrical conductivity (251.9 K, Glass, x1 = 0.5001) was 0.014 ± 0.003 S/m and the electrical conductivity (254.1 K, Glass, x1 = 0.5001) was 0.016 S/m and 0.017 S/m. The electrical conductivity (255.1 K, Glass, x1 = 0.5001) was 0.018 ± 0.003 S/m, the electrical conductivity (256.1 K, Glass, x1 = 0.5001) was 0.02 ± 0.003 S/m and the electrical conductivity (257.1 K, Glass, x1 = 0.4688) was 0.023 ± 0.003 S/m. It also gave an electrical conductivity (257.1 K, Glass, x1 = 0.5001) of 0.022 ± 0.003 S/m, an electrical conductivity (258.1 K, Glass, x1 = 0.5001) of 0.023 ± 0.003 S/m and an electrical conductivity (259.1 K, Glass, x1 = 0.4688) of 0.028 ± 0.003 S/m. For the same molecule, the electrical conductivity (259.1 K, Liquid, x1 = 0.5001) was 0.025 ± 0.003 S/m, the electrical conductivity (261.1 K, Glass, x1 = 0.4688) was 0.032 S/m and 0.031 S/m and the electrical conductivity (261.1 K, Liquid, x1 = 0.0803) was 0.56 ± 0.012 S/m. The electrical conductivity (261.1 K, Liquid, x1 = 0.5001) was 0.029 ± 0.003 S/m, the electrical conductivity (263.1 K, Glass, x1 = 0.2119) was 0.228 ± 0.005 S/m and the electrical conductivity (263.1 K, Glass, x1 = 0.4688) was 0.036 S/m and 0.038 S/m. For the same molecule, the electrical conductivity (263.1 K, Liquid, x1 = 0.0586) was 0.703 ± 0.016 S/m, the electrical conductivity (263.1 K, Liquid, x1 = 0.0803) was 0.611 ± 0.013 S/m and the electrical conductivity (263.1 K, Liquid, x1 = 0.5001) was 0.034 ± 0.003 S/m. The electrical conductivity (264.1 K, Glass, x1 = 0.1197) was 0.479 ± 0.011 S/m, the electrical conductivity (265.1 K, Liquid, x1 = 0.0803) was 0.667 S/m and 0.622 S/m and the electrical conductivity (266.1 K, Glass, x1 = 0.4688) was 0.045 ± 0.003 S/m. The electrical conductivity (266.1 K, Liquid, x1 = 0.0803) was 0.688 ± 0.015 S/m, the electrical conductivity (267.1 K, Glass, x1 = 0.4688) was 0.049 ± 0.003 S/m and the electrical conductivity (268.1 K, Glass, x1 = 0.1197) was 0.566 ± 0.012 S/m. For the same molecule, the electrical conductivity (268.1 K, Glass, x1 = 0.2119) was 0.29 ± 0.007 S/m, the electrical conductivity (268.1 K, Glass, x1 = 0.4108) was 0.085 ± 0.003 S/m and the electrical conductivity (268.1 K, Glass, x1 = 0.4688) was 0.051 ± 0.003 S/m. The electrical conductivity (268.1 K, Liquid, x1 = 0.0401) was 0.898 ± 0.019 S/m, the electrical conductivity (268.1 K, Liquid, x1 = 0.0586) was 0.867 ± 0.02 S/m and the electrical conductivity (268.1 K, Liquid, x1 = 0.0803) was 0.755 S/m and 0.753 S/m. The electrical conductivity (268.1 K, Liquid, x1 = 0.4688) was 0.052 ± 0.003 S/m, the electrical conductivity (268.1 K, Liquid, x1 = 0.5001) was 0.048 ± 0.003 S/m and the electrical conductivity (269.1 K, Glass, x1 = 0.1197) was 0.591 S/m and 0.59 S/m. For the same molecule, the electrical conductivity (269.1 K, Liquid, x1 = 0.0586) was 0.897 ± 0.019 S/m, the electrical conductivity (269.1 K, Liquid, x1 = 0.4688) was 0.054 ± 0.003 S/m and the mass density (269.1 K, Liquid, x1 = 0.1197) was 1084.1 ± 1 kg/m3. The viscosity (269.6 K, Glass, x1 = 0.4108) was 16300 ± 7600 mPa·s, the mass density (269.6 K, Liquid, x1 = 0.4108) was 1107.2 ± 1 kg/m3 and the electrical conductivity (270.1 K, Glass, x1 = 0.1197) was 0.617 S/m and 0.616 S/m. The viscosity (270.1 K, Glass, x1 = 0.1197) was 19170 mPa·s, the viscosity (270.1 K, Glass, x1 = 0.4108) was 5510 ± 1500 mPa·s and the electrical conductivity (270.1 K, Liquid, x1 = 0.0401) was 0.968 ± 0.02 S/m. For the same molecule, the electrical conductivity (270.1 K, Liquid, x1 = 0.4688) was 0.059 S/m and 0.058 S/m, the mass density (270.1 K, Liquid, x1 = 0.1197) was 1083.7 ± 1 kg/m3 and the mass density (270.1 K, Liquid, x1 = 0.4108) was 1107 ± 1 kg/m3. The viscosity (270.6 K, Glass, x1 = 0.4108) was 2431 ± 460 mPa·s, the mass density (270.6 K, Liquid, x1 = 0.4108) was 1106.7 ± 1 kg/m3 and the electrical conductivity (271.1 K, Glass, x1 = 0.1197) was 0.641 S/m and 0.639 S/m. For the same molecule, the electrical conductivity (271.1 K, Glass, x1 = 0.4108) was 0.1 ± 0.003 S/m, the viscosity (271.1 K, Glass, x1 = 0.1197) was 16390 ± 7600 mPa·s and the viscosity (271.1 K, Glass, x1 = 0.4108) was 1385 ± 210 mPa·s. It also gave an electrical conductivity (271.1 K, Liquid, x1 = 0.0803) of 0.862 ± 0.019 S/m, a mass density (271.1 K, Liquid, x1 = 0.1197) of 1083.1 ± 1 kg/m3 and a mass density (271.1 K, Liquid, x1 = 0.4108) of 1106.4 ± 1 kg/m3. The viscosity (271.6 K, Glass, x1 = 0.4108) was 889.3 ± 110 mPa·s, the mass density (271.6 K, Liquid, x1 = 0.4108) was 1106.1 ± 1 kg/m3 and the electrical conductivity (272.1 K, Glass, x1 = 0.1197) was 0.667 ± 0.014 S/m. For the same molecule, the electrical conductivity (272.1 K, Glass, x1 = 0.4108) was 0.104 ± 0.003 S/m, the viscosity (272.1 K, Glass, x1 = 0.1197) was 11470 ± 4400 mPa·s and the electrical conductivity (272.1 K, Liquid, x1 = 0.0401) was 1.03 ± 0.022 S/m. For the same molecule, the electrical conductivity (272.1 K, Liquid, x1 = 0.1197) was 0.666 ± 0.015 S/m, the viscosity (272.1 K, Liquid, x1 = 0.4108) was 609.1 ± 67 mPa·s and the mass density (272.1 K, Liquid, x1 = 0.1197) was 1082.6 ± 1 kg/m3. The mass density (272.1 K, Liquid, x1 = 0.4108) was 1105.7 ± 1 kg/m3, the electrical conductivity (273.1 K, Glass, x1 = 0.1402) was 0.597 ± 0.013 S/m and the electrical conductivity (273.1 K, Glass, x1 = 0.2119) was 0.371 S/m and 0.368 S/m. It also gave an electrical conductivity (273.1 K, Glass, x1 = 0.3076) of 0.203 ± 0.005 S/m, an electrical conductivity (273.1 K, Glass, x1 = 0.3555) of 0.147 ± 0.003 S/m and an electrical conductivity (273.1 K, Glass, x1 = 0.4108) of 0.111 ± 0.004 S/m. It also gave a viscosity (273.1 K, Glass, x1 = 0.1197) of 9033 ± 3100 mPa·s, an electrical conductivity (273.1 K, Liquid, x1 = 0.0401) of 1.07 S/m and an electrical conductivity (273.1 K, Liquid, x1 = 0.0586) of 1.04 S/m. For the same molecule, the electrical conductivity (273.1 K, Liquid, x1 = 0.0803) was 0.921 ± 0.02 S/m, the electrical conductivity (273.1 K, Liquid, x1 = 0.1197) was 0.695 ± 0.015 S/m and the electrical conductivity (273.1 K, Liquid, x1 = 0.4688) was 0.073 S/m and 0.07 S/m. The electrical conductivity (273.1 K, Liquid, x1 = 0.5001) was 0.066 ± 0.003 S/m, the viscosity (273.1 K, Liquid, x1 = 0.4108) was 564.7 ± 60 mPa·s and the mass density (273.1 K, Liquid, x1 = 0.1197) was 1082 ± 1 kg/m3. For the same molecule, the mass density (273.1 K, Liquid, x1 = 0.4108) was 1105 ± 1 kg/m3, the viscosity (274.1 K, Glass, x1 = 0.1197) was 6783 ± 2000 mPa·s and the electrical conductivity (274.1 K, Liquid, x1 = 0.1197) was 0.723 ± 0.016 S/m. The electrical conductivity (274.1 K, Liquid, x1 = 0.4108) was 0.117 ± 0.003 S/m, the viscosity (274.1 K, Liquid, x1 = 0.4108) was 524.2 ± 54 mPa·s and the mass density (274.1 K, Liquid, x1 = 0.1197) was 1081.5 ± 1.1 kg/m3. It also gave a mass density (274.1 K, Liquid, x1 = 0.4108) of 1104.3 ± 1 kg/m3, a viscosity (275.1 K, Glass, x1 = 0.1197) of 4354 ± 1000 mPa·s and an electrical conductivity (275.1 K, Liquid, x1 = 0.1197) of 0.75 ± 0.016 S/m. For the same molecule, the electrical conductivity (275.1 K, Liquid, x1 = 0.4108) was 0.123 ± 0.004 S/m, the viscosity (275.1 K, Liquid, x1 = 0.4108) was 487.1 ± 49 mPa·s and the mass density (275.1 K, Liquid, x1 = 0.1197) was 1080.9 ± 1 kg/m3. The mass density (275.1 K, Liquid, x1 = 0.4108) was 1103.6 ± 1 kg/m3, the electrical conductivity (276.1 K, Glass, x1 = 0.3555) was 0.169 ± 0.004 S/m and the viscosity (276.1 K, Glass, x1 = 0.1197) was 2361 ± 430 mPa·s. It also gave an electrical conductivity (276.1 K, Liquid, x1 = 0.0803) of 1.02 ± 0.021 S/m, an electrical conductivity (276.1 K, Liquid, x1 = 0.4688) of 0.086 ± 0.003 S/m and a mass density (276.1 K, Liquid, x1 = 0.1197) of 1080.3 ± 1 kg/m3. For the same molecule, the electrical conductivity (277.1 K, Glass, x1 = 0.3555) was 0.181 ± 0.004 S/m, the viscosity (277.1 K, Glass, x1 = 0.1197) was 1248 ± 170 mPa·s and the electrical conductivity (277.1 K, Liquid, x1 = 0.1197) was 0.807 S/m and 0.806 S/m. For the same molecule, the mass density (277.1 K, Liquid, x1 = 0.1197) was 1079.7 ± 1 kg/m3, the viscosity (277.6 K, Glass, x1 = 0.3555) was 5137 ± 1300 mPa·s and the mass density (277.6 K, Liquid, x1 = 0.3555) was 1100 ± 1 kg/m3. The viscosity (277.9 K, Glass, x1 = 0.3555) was 2995 ± 600 mPa·s and 2875 ± 560 mPa·s, the mass density (277.9 K, Liquid, x1 = 0.3555) was 1099.9 ± 1 kg/m3 and the electrical conductivity (278.1 K, Glass, x1 = 0.1402) was 0.731 S/m and 0.732 S/m. The electrical conductivity (278.1 K, Glass, x1 = 0.1605) was 0.677 ± 0.015 S/m, the electrical conductivity (278.1 K, Glass, x1 = 0.2119) was 0.46 ± 0.01 S/m and the electrical conductivity (278.1 K, Glass, x1 = 0.3076) was 0.259 S/m and 0.258 S/m.
